Source: patent publication US11931327B2, “Drug for retinal degenerative disease associated with photoreceptor degeneration” (Daiichi Sankyo Company, Limited, priority 2017, dated 2024)

Columns and labels:
[1] = test system: pathological zebrafish 2: Tg (rho: NTR-NanoLuc, my17: DsRed2) crossed with Tg (rho: hRHO (Q344X), omp: EGFP); assay: Rod-cell regeneration effect in retinitis pigmentosa model, quantitative evaluation by NanoLuc luminescence; assay type: in vivo; conditions: N=8 per concentration; Dunnett's test; FIG. 7
Protocol: Pathological model zebrafish, in which rod-cell regeneration can be quantitatively evaluated, were newly prepared using zebrafish known as a retinitis pigmentosa model. The effect of compounds was quantitatively verified in accordance with the following procedure.
1) Quantitative evaluation of rod-cell regeneration was carried out by zebrafish (pathological zebrafish 2) obtained by crossing transgenic Tg (rho: NTR-NanoLuc, my17: DsRed2) and Tg (rho: hRHO (Q344X), omp: EGFP).
Fertilized eggs were collected.
A screening test was repeated 8 times (N=8) at each concentration.
2) After shaking for one hour using BIO-Mixer, the luminescence from NanoLuc (registered trademark) was measured by use of EnVision.

[2] = test system: Pathological zebrafish 1: Tg (rho: EGFP) crossed with Tg (rho: hRHO (Q344X), omp: EGFP); assay: Rod-cell regeneration effect in retinitis pigmentosa model, EGFP observed by confocal laser microscope; assay type: in vivo; conditions: 1 μM; fish raised 2 days with compound; FIG. 6
Protocol: Pathological model fish, in which rod-cell regeneration can be observed, were prepared using zebrafish known as a retinitis pigmentosa model. The effect of a compound was confirmed in accordance with the following procedure. As the compound to be evaluated, TTNPB (Sigma-Aldrich, Cat. No. T3757-10MG), was used.
1) To prepare a pathological model, in which rod-cell regeneration can be observed, zebrafish Tg (rho: EGFP) (Hamaoka T1, Takechi M, Chinen A et al., Visualization of rod photoreceptor development using GFP-transgenic zebrafish. Genesis. 2002; 34 (3): 215-220.; used as a reporter fish of rod cells) were crossed with zebrafish Tg (rho: hRHO (Q344X), omp: EGFP), which is a name under another nomenclature system of a retinitis pigmentosa model, i.e., zebrafish RH1: hRhodopsin (Q344X) (Nakao T, Tsujikawa M, Notomi S, Ikeda Y, Nishida K., “The role of mislocalized phototransduction in photoreceptor cell death of retinitis pigmentosa.”, PLoS One., 2012; 7 (4): e32472). The zebrafish obtained were specified as zebrafish (Pathological zebrafish 1). Control zebrafish (non-pathological zebrafish) were obtained by crossing zebrafish Tg (rho: EGFP) with wild-type zebrafish. […]
Luminescence of EGFP specifically expressed in rod cells was observed by a confocal laser microscope in the following procedure. […]

[3] = test system: transgenic zebrafish Tg (rho: NTR-NanoLuc, my17: DsRed2); assay: animal or person
From the text: First, the present inventors constructed a model for evaluating induction of rod cell regeneration. […] Transgenic zebrafish Tg (rho: NTR-NanoLuc, my17: DsRed2), in which a fluorescent protein, DsRed2, which is cardiac-tissue specifically expressed by cardiomyocyte-specific my17 promoter, can be simply detected by using dsRed2 as a marker under a fluorescence stereomicroscope. In the transgenic zebrafish, in addition to cardiac tissue specific expression of DsRed2, a reductase, i.e., nitroreductase (NTR), and a photoprotein, i.e., NanoLuc fusion protein (NTR-NanoLuc), are expressed by a rod-cell specific rho promoter, in a rod-cell specific manner. […] However, if, a prodrug, metronidazole, is added, non-toxic metronidazole is converted to a toxic radical by NTR. […] After rod cells are ablated by treatment with metronidazole, the transgenic zebrafish were washed with rearing water to remove the toxic radical. […] In the transgenic zebrafish, rod cells can be quantitatively determined by measuring the amount of luminescence derived from rod-cell-specific NanoLuc expression. After the rod cells are ablated, the transgenic zebrafish are exposed to a test compound. The activity of the test compound to induce rod-cell regeneration can be quantitatively evaluated by measuring the amount of luminescence derived from NanoLuc and specific to rod cells.
1) On the day before collection of eggs, a pair of male and female zebrafish, i.e., a transgenic fish Tg (rho: NTR-NanoLuc, my17: DsRed2) and a wild type, were placed in a tank for mating and isolated by a divider.
2) The next morning (8:00-11:00), the divider was removed to allow them to mate with each other. Fertilized eggs were collected. In the evening (16:00-18:00) of the same day, only normally developed fertilized eggs were screened and raised in a plate for growth.
3) Day 3 after fertilization, juvenile fish were transferred to rearing water, which contained 10 mM metronidazole (Sigma-Aldrich, Japan) and 1% DMSO (Wako Pure Chemical Industries Ltd.), (prepared by dissolving 60 mg of instant ocean (Napco Limited (Japan)) in 1 L of distilled water), and raised in dark conditions for 24 hours. In this manner, ablation was specifically applied to the rod cells of the juvenile fish. In contrast, non-ablated juvenile fish, which were to be used as a control, were transferred to a tank containing rearing water, which contained a 1% DMSO solution, and raised.
5) Ablated juvenile fish of 4 days after fertilization were washed well with Egg water and dispensed in wells of the assay plate containing a compound together with 100 μL of Egg water, such that 2 juvenile fish individuals were present per well.
6) After the juvenile fish were raised for 2 days, […] of Egg water was removed and ethyl 3-aminobenzoate methanesulfonate (Sigma-Aldrich Japan; 0.4 mg/mL, 10 μL) was added to euthanize the fish.
7) Nano-Glo (registered trademark) Luciferase assay Substrate (Promega Corporation) was added to Nano-Glo (registered trademark) Luciferase assay buffer (Promega Corporation) in a ratio of 1:50 and 100 μL of the resultant solution was added to each of the wells.
8) Shaking was carried out by use of BIO-Mixer (Biotech Japan Co., Ltd.) for one hour and luminescence of NanoLuc (registered trademark) was measured by use of EnVision (PerkinElmer Co., Ltd., Japan).
Individual concentration groups were compared to the DMSO control group by the Dunnett's test.

## C/C(=C\c1ccc(C(=O)O)cc1)c1ccc2c(c1)C(C)(C)CCC2(C)C [TTNPB, 4-[(E)-2-(5,6,7,8-tetrahydro-5,5,8,8-tetramethyl-2-naphthalenyl)-1-propenyl]benzoic acid]
[1]
  regeneration of rod cells in the retinitis pigmentosa model (luminescence, words): statistically significant regeneration of rod cells in a dose dependent manner
[2]
  number of rod cells compared to pathological fish untreated with drug: Recovery in the number of rod cells was confirmed
[3]; Examples 3 and 4, TTNPB 0.3, 1, 3, 10 and 30 μM, N=4, RA and BMS493 N=8, Dunnett's test
  rod-cell regeneration induction activity compared to the DMSO control: statistically significant rod-cell regeneration induction activity at all concentrations
[3]; minimum concentration tested, range 0.3-30 μM
  concentration at which the medicinal effect already reached saturation: ≤ 0.3 µM
[3]; screening, 2.5 μM, relative to average of DMSO control = 100
  Activation (%): ≥ 150%
